{
  "source": "ChEMBL document CHEMBL5233247",
  "about": "“Recent advances in DNA gyrase-targeted antimicrobial agents” (Eur J Med Chem, 2020)",
  "key": {"[1]": {"molecular_target": "T1, DNA gyrase (Staphylococcus aureus, UniProt P0A0K8+P20831)", "T1 sequence (P0A0K8 whole entry)": "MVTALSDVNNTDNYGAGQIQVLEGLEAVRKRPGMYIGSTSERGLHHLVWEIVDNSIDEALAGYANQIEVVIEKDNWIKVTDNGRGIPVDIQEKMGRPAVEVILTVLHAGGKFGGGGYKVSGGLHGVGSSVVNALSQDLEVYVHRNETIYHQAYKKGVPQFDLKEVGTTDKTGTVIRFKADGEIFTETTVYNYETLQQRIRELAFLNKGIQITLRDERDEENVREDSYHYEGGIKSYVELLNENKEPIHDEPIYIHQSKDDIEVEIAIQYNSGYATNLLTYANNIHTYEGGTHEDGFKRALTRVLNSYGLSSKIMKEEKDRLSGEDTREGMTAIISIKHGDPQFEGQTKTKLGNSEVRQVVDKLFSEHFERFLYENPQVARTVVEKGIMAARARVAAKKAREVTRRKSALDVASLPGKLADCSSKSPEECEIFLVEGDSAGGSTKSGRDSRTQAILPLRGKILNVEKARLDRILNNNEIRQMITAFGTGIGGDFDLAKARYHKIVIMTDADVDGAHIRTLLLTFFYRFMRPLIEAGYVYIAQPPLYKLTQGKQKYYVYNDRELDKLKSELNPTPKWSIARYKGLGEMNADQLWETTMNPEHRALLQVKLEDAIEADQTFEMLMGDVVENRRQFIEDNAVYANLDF", "T1 sequence (P20831 whole entry)": "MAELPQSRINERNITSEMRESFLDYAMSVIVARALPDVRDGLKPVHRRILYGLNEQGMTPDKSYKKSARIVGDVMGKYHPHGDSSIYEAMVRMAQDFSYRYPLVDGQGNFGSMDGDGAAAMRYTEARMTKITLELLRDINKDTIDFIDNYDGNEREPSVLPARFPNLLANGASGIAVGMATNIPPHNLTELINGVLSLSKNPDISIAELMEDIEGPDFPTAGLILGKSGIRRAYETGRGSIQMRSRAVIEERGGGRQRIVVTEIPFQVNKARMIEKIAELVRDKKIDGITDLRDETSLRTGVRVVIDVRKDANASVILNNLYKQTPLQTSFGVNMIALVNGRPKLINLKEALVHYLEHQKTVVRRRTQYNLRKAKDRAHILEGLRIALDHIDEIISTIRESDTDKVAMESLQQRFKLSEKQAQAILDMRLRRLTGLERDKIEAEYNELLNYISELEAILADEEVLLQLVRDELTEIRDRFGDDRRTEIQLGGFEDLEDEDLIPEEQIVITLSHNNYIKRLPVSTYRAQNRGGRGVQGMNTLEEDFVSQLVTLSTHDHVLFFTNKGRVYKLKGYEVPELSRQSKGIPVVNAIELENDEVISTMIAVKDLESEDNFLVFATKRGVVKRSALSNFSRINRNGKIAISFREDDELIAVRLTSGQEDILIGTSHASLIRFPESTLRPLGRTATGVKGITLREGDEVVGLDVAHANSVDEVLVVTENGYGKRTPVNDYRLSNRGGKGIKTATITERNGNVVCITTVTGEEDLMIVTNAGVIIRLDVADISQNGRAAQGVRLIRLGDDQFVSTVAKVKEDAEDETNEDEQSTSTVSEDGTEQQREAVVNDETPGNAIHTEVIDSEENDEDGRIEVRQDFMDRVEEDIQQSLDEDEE", "experiment": "Inhibition of Staphylococcus aureus DNA gyrase", "type": "protein-complex assay"}, "[2]": {"molecular_target": "DNA gyrase (Escherichia coli, UniProt P0AES4+P0AES6)", "experiment": "Inhibition of Escherichia coli DNA gyrase", "type": "protein-complex assay"}, "[3]": {"molecular_target": "DNA gyrase subunit A/DNA gyrase subunit B (Mycobacterium tuberculosis (strain ATCC 25618 / H37Rv), UniProt P9WG45+P9WG47)", "sequence (P9WG45 whole entry)": "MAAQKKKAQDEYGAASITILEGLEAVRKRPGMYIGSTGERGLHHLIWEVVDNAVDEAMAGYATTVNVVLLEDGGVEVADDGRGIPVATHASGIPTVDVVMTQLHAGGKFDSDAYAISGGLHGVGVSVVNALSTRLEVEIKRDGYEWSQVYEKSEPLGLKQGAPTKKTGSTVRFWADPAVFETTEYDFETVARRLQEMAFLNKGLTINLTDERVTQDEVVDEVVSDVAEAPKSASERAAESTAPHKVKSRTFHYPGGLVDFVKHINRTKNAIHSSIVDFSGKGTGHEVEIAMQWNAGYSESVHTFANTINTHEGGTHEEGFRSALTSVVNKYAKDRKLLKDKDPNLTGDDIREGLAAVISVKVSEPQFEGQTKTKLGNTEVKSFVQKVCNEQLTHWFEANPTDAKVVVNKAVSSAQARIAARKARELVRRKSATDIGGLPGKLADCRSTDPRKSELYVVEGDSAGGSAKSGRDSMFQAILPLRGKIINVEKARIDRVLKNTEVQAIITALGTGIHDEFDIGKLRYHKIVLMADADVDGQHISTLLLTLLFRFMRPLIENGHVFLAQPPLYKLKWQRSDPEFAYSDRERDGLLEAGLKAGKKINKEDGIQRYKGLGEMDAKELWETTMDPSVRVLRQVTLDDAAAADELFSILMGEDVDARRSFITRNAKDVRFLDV", "sequence (P9WG47 whole entry)": "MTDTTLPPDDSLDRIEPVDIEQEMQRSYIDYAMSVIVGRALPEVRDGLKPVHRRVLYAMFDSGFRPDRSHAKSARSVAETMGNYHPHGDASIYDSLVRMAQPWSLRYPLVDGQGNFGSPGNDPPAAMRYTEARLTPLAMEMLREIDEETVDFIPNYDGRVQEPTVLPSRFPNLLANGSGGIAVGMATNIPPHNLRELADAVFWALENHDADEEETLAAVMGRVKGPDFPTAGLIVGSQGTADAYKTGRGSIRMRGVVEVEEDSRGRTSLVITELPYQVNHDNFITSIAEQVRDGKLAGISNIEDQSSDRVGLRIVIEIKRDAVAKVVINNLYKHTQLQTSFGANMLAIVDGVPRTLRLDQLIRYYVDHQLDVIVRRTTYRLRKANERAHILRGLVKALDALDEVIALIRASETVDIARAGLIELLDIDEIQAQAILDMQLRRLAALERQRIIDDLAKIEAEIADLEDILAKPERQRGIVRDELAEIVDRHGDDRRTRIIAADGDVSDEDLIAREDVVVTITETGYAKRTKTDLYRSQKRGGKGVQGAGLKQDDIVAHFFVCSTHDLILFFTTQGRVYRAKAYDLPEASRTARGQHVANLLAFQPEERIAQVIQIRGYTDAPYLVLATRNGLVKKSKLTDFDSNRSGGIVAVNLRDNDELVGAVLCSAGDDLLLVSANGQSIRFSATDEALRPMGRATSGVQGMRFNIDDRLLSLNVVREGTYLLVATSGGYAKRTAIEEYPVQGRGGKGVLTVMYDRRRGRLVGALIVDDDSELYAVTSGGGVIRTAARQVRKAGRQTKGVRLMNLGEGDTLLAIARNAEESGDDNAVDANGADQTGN", "experiment": "Inhibition of Mycobacterium tuberculosis (MTB) DNA gyrase using pBR322 DNA by supercoiling assay", "type": "protein-complex assay"}, "[4]": {"test_system": "Mycobacterium tuberculosis", "experiment": "Antimycobacterial activity against Mycobacterium tuberculosis incubated for 7 days by MABA assay", "type": "functional", "conditions": "168 h, time 7 day"}, "[5]": {"molecular_target": "T1, DNA gyrase", "experiment": "Inhibition of Staphylococcus aureus DNA gyrase assessed as relaxation of pBR322 DNA by supercoiling assay", "type": "protein-complex assay"}, "[6]": {"test_system": "Staphylococcus aureus", "experiment": "Antibacterial activity against methicillin-resistant Staphylococcus aureus", "type": "functional, organism-based"}, "[7]": {"test_system": "Staphylococcus aureus", "experiment": "Antibacterial activity against methicillin-sensitive Staphylococcus aureus", "type": "functional, organism-based"}, "[8]": {"test_system": "Mycobacterium tuberculosis", "experiment": "Anti-tubercular activity against Mycobacterium tuberculosis H37Rv strain", "type": "functional"}, "[9]": {"test_system": "Bacillus subtilis", "experiment": "Antibacterial activity against Bacillus subtilis DSM 10 by microdilution assay", "type": "functional"}, "[10]": {"test_system": "Mycolicibacterium phlei", "experiment": "Antibacterial activity against Mycobacterium phlei DSM 750 by microdilution assay", "type": "functional"}},
  "note": "pIC50: −log10 of the molar value.",
  "data": [
    {"smiles": "O=C(O)CCC(=O)Nc1ccc(NC(=O)c2ccco2)cc1", "values": [
      {"measurement": "pIC50", "setting": "[1]", "result": 4.89}
    ]},
    {"smiles": "O=C(O)C(=O)Nc1ccc(NC(=O)c2cc(Br)c(Br)[nH]2)cc1", "values": [
      {"measurement": "pIC50", "setting": "[2]", "result": 6.74}
    ]},
    {"smiles": "Cc1ccc(NC(=S)N2CCN(c3nc(=O)c4cc([N+](=O)[O-])ccc4s3)CC2)cc1", "values": [
      {"measurement": "pIC50", "setting": "[3]", "result": 6.11},
      {"measurement": "MIC", "setting": "[4]", "result": 1.82, "unit": "µM"}
    ]},
    {"smiles": "O=c1nc(N2CCN(C(=S)Nc3ccc(Cl)cc3)CC2)sc2ccc([N+](=O)[O-])cc12", "values": [
      {"measurement": "pIC50", "setting": "[3]", "result": 6.09},
      {"measurement": "MIC", "setting": "[4]", "result": 2.83, "unit": "µM"}
    ]},
    {"smiles": "O=c1nc(N2CCN(C(=S)Nc3ccccc3)CC2)sc2ccc([N+](=O)[O-])cc12", "values": [
      {"measurement": "pIC50", "setting": "[3]", "result": 6.29},
      {"measurement": "MIC", "setting": "[4]", "result": 4.41, "unit": "µM"}
    ]},
    {"smiles": "O=C(O)C(=O)Nc1nc2ccc(NC(=O)c3cc(Br)c(Br)[nH]3)cc2s1", "values": [
      {"measurement": "pIC50", "setting": "[2]", "result": 7.24}
    ]},
    {"smiles": "O=C(O)CNC(=O)Cc1csc(NC(=O)c2cc(Br)c(Br)[nH]2)n1", "values": [
      {"measurement": "pIC50", "setting": "[2]", "result": 4.80}
    ]},
    {"smiles": "COc1ccc2c3conc3c(=O)n(CCN3CCC(NCc4ccc5c(n4)NC(=O)CO5)CC3)c2c1", "values": [
      {"measurement": "pIC50", "setting": "[2]", "result": 6.38}
    ]},
    {"smiles": "COC(=O)c1ccc(CNC(=O)[C@H](Cc2ccc(O)cc2)NC(=O)c2cc(Br)c(Br)[nH]2)cc1", "values": [
      {"measurement": "pIC50", "setting": "[2]", "result": 6.01}
    ]},
    {"smiles": "COc1cc2c(cc1OCCCC(=O)Nc1cc(C(=O)Nc3ccc4occc4c3)n(C)c1)N=C[C@@H]1CCCN1C2=O", "values": [
      {"measurement": "pIC50", "setting": "[5]", "result": 5.54}
    ]},
    {"smiles": "O=C1COc2ccc(CNC3CCN(CCn4c(=O)c5nocc5c5ncccc54)CC3)nc2N1", "values": [
      {"measurement": "pIC50", "setting": "[2]", "result": 6.35}
    ]},
    {"smiles": "COc1cc2c(cc1OCCCC(=O)Nc1cc(C(=O)Nc3ccc4sccc4c3)n(C)c1)N=C[C@@H]1CCCN1C2=O", "values": [
      {"measurement": "pIC50", "setting": "[5]", "result": 5.41}
    ]},
    {"smiles": "COc1ccc2c3conc3c(=O)n(CCN3CCC(NCc4nc5c(cc4F)OCC(=O)N5)CC3)c2c1", "values": [
      {"measurement": "pIC50", "setting": "[2]", "result": 6.40}
    ]},
    {"smiles": "COC(=O)CNC(=O)c1ccc(NC(=O)c2cc(Cl)c(Cl)[nH]2)c(OCC(C)C)c1", "values": [
      {"measurement": "pIC50", "setting": "[2]", "result": 5.64}
    ]},
    {"smiles": "CCn1cc(C(=O)N[C@H](CCCNC(=N)N)C(=O)N[C@@H](CC2CCCCC2)C(=O)N[C@H](CCCNC(=N)N)C(=O)N[C@@H](CC2CCCCC2)C(=O)N[C@H](CCCNC(=N)N)C(=O)N[C@@H](CC2CCCCC2)C(N)=O)c(=O)c2ccc(C)nc21", "values": [
      {"measurement": "IC50", "setting": "[6]", "result": 1, "unit": "µg/mL"},
      {"measurement": "pIC50", "setting": "[1]", "result": 4.60},
      {"measurement": "IC50", "setting": "[7]", "result": 18, "unit": "µg/mL"}
    ]},
    {"smiles": "CCNC(=O)Nc1nc2ccc(NC(=O)Cc3csc(NC(=O)OC(C)(C)C)n3)cc2s1", "values": [
      {"measurement": "pIC50", "setting": "[2]", "result": 5.41}
    ]},
    {"smiles": "COc1cc(/C=N/Nc2nc(-c3ccc(Br)cc3)cs2)ccc1Oc1ccnc2cc(Cl)ccc12", "values": [
      {"measurement": "MIC", "setting": "[8]", "result": 3.12, "unit": "µM"}
    ]},
    {"smiles": "COc1c(NC(=O)c2ccc(NC(=O)[C@H](CC#N)NC(=O)c3ccc(NC(=O)/C(C)=C/c4ccc(O)cc4)cc3)c(OC)c2O)ccc(C(=O)O)c1O", "values": [
      {"measurement": "MIC", "setting": "[9]", "result": 0.062, "unit": "µM"},
      {"measurement": "MIC", "setting": "[10]", "result": 2, "unit": "µM"}
    ]},
    {"smiles": "COc1cc(/C=N/Nc2nc(-c3ccc([N+](=O)[O-])cc3)cs2)ccc1Oc1ccnc2cc(Cl)ccc12", "values": [
      {"measurement": "MIC", "setting": "[8]", "result": 3.12, "unit": "µM"}
    ]},
    {"smiles": "COc1cc(C(=O)NCC(=O)O)ccc1NC(=O)c1cc(Cl)c(Cl)[nH]1", "values": [
      {"measurement": "pIC50", "setting": "[2]", "result": 6.92}
    ]},
    {"smiles": "O=C(O)c1ccc(CNC(=O)[C@H](Cc2ccc(O)cc2)NC(=O)c2cc(Br)c(Br)[nH]2)cc1", "values": [
      {"measurement": "pIC50", "setting": "[2]", "result": 6.21}
    ]},
    {"smiles": "COc1c(NC(=O)c2ccc(NC(=O)[C@@H](NC(=O)c3ccc(NC(=O)/C(C)=C/c4ccc(O)cc4)cc3)C(C)O)c(OC)c2O)ccc(C(=O)O)c1O", "note": "(stereo not given in full)", "values": [
      {"measurement": "MIC", "setting": "[9]", "result": 0.5, "unit": "µM"},
      {"measurement": "MIC", "setting": "[10]", "result": 2, "unit": "µM"}
    ]},
    {"smiles": "CCNC(=O)Nc1nc2ccc(NC(=O)Cc3csc(NC(C)=O)n3)cc2s1", "values": [
      {"measurement": "pIC50", "setting": "[2]", "result": 5.25}
    ]},
    {"smiles": "CCn1cc(C(=O)N[C@@H](CC2CCCCC2)C(=O)N[C@H](CCCNC(=N)N)C(=O)N[C@@H](CC2CCCCC2)C(=O)N[C@H](CCCNC(=N)N)C(=O)N[C@@H](CC2CCCCC2)C(=O)N[C@H](CCCNC(=N)N)C(=O)N[C@@H](CC2CCCCC2)C(N)=O)c(=O)c2ccc(C)nc21", "values": [
      {"measurement": "IC50", "setting": "[6]", "result": 13, "unit": "µg/mL"},
      {"measurement": "pIC50", "setting": "[1]", "result": 4.60},
      {"measurement": "IC50", "setting": "[7]", "result": 13, "unit": "µg/mL"}
    ]},
    {"smiles": "COc1cc(/C=N/Nc2nc(-c3ccc(Cl)cc3)cs2)ccc1Oc1ccnc2cc(Cl)ccc12", "values": [
      {"measurement": "MIC", "setting": "[8]", "result": 3.12, "unit": "µM"}
    ]},
    {"smiles": "O=C1COc2ccc(CNC3CCN(CCn4c(=O)c5nocc5c5ccc(F)cc54)CC3)nc2N1", "values": [
      {"measurement": "pIC50", "setting": "[2]", "result": 6.37}
    ]},
    {"smiles": "O=C1COc2ccc(CNC3CCN(CCn4c(=O)c5ncoc5c5ccc(F)cc54)CC3)nc2N1", "values": [
      {"measurement": "pIC50", "setting": "[2]", "result": 6.37}
    ]},
    {"smiles": "O=C1COc2cc(F)c(CNC3CCN(CCn4c(=O)c5nocc5c5ccc(F)cc54)CC3)nc2N1", "values": [
      {"measurement": "pIC50", "setting": "[2]", "result": 6.39}
    ]},
    {"smiles": "CCn1cc(C(=O)O)c(=O)c2ccc(C)nc21", "note": "[NALIDIXIC ACID]", "values": [
      {"measurement": "IC50", "setting": "[6]", "result": 47, "unit": "µg/mL"},
      {"measurement": "IC50", "setting": "[7]", "result": 47, "unit": "µg/mL"}
    ]},
    {"smiles": "NC(=O)c1cnccn1", "note": "[PYRAZINAMIDE]", "values": [
      {"measurement": "MIC", "setting": "[8]", "result": 3.12, "unit": "µM"}
    ]}
  ]
}
